Measurements from publication PMC7596334 (Redox Biology, 2020).

Molecular target: T1, 15LOX2 (Homo sapiens, UniProt O15296)
T1 sequence (O15296 1-676): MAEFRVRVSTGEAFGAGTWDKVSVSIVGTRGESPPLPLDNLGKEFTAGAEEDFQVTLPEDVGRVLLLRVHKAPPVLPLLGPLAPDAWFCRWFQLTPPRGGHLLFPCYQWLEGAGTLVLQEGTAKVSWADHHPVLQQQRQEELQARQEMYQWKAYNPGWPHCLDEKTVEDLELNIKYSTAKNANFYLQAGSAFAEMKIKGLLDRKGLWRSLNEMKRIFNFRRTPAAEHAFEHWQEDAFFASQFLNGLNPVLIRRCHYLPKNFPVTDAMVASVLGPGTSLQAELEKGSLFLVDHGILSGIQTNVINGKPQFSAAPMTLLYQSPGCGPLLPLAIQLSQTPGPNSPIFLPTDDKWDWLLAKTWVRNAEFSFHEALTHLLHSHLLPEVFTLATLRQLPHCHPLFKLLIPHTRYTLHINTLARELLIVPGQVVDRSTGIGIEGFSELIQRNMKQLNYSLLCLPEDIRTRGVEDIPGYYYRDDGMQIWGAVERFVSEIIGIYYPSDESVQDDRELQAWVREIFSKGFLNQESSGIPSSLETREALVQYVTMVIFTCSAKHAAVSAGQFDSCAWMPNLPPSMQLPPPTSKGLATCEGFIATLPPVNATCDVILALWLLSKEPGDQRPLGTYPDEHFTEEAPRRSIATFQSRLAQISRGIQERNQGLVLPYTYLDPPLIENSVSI
T1 sequence (P30086 2-187 partner): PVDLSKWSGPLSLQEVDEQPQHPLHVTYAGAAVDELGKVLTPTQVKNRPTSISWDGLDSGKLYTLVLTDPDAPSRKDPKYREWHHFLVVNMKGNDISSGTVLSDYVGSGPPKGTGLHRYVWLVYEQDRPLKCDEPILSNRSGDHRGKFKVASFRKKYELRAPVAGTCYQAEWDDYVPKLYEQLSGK
Type: biochemical

CCOC(=O)c1ccc(NC2CCCCC2)c(N)c1 [Fer-1, Ferrostatin-1]
IC50: 10.1 nM
